Assay [1] concerns the target T1, human thrombin (Homo sapiens, UniProt P00734). Nature of the assay: BIAcore (SPR) analysis of binding to immobilized thrombin. On the set-up: Thrombin, also known as an active plasma coagulation factor II; purchased Sigma-Aldrich Chemical Co. (St. Louis, MO, USA) T7009. The note with it: for Kd: read-out: K D, equilibrium dissociation constant; for kon: read-out: k a, association rate; for koff: read-out: k d, dissociation rate; for Response (RU): analyte 1,000 μM, thrombin immobilized on CM5 chip. Here is the method:
The biosensor assays were performed using the BIAcore 1000 biosensor system. All biosensor analyses were performed with a phosphate-buffered saline (PBS), pH 7.4, as a running buffer. […] The immobilization of thrombin on a biosensor carboxylmethyl dextran surface was performed according to the BIA applications Handbook (BIAcore, [1994]). The process of protein immobilization was performed on a sensor chip CM5 surface by the positively charged functional groups of protein amino acids. The immobilization process consisted of four steps: preconcentration, activation, ligand immobilization and deactivation of the residual NHS esters. […] The temperature during the whole experiment was also constant and was set to 25.0 °C. […] Each of these solutions (10 μl) was injected into an empty sensor chip channel. […] The amount of injected activation mixture was modified, to regulate the amount of immobilized ligand. […] The conditions of the latter experiments were established by numerous pre-tests. The assessed parameters included: the buffer flow rate, the volume of analyte injection, the concentration of analytes, types and concentration of regenerators. […] For each injection of analyte solution, the volume used was 100 μl. After injection of analyte was completed, the dissociation step occurred and the level of the interaction ligand-analyte was measured. During dissociation, the particles non-covalently bound to the ligand were washed out from the working channel. […] To do these calculations, the formulas presented below were used: the association rate […]]; the dissociation rate -d[AB]/dt=kd·[AB]; the equilibrium constants: KA=[AB]/[A]·[B]=ka/kd KD=[A]·[B]/[AB]=kd/ka.
Background: In SPR one partner is held on a chip, and binding of the other changes the refractive index at the surface.

Assay [2] addresses T1, human thrombin. Nature of the assay: Amidolytic activity of thrombin (hydrolysis of chromogenic substrate D-Phe-Pip-Arg-pNA). Type of assay: biochemical. The arrangement: Thrombin, also known as an active plasma coagulation factor II; purchased Sigma-Aldrich Chemical Co. (St. Louis, MO, USA) T7009; host or cells: purified from human plasma. As to conditions: at 375 μM substrate concentration; compounds 0.1–1,000 μM, preincubation 10 min 37 °C; read-out: IC50, amidolytic activity of human thrombin. As to the method: All tested compounds were dissolved in 50 % DMSO to the initial concentration of 10 mM; other solutions of compounds were also prepared in 50 % DMSO (prepared in 50 mM TBS, pH 7.4). The final concentration of DMSO in thrombin samples was 5 %. To prepare thrombin control samples, the same volume of solvent (50 % DMSO prepared in 50 mM TBS, pH 7.4) was added as in the case of the compound volume and warmed for 10 min to 37 °C.
To each reaction well, 40 μl of 3 mM chromogenic substrate was added. To initiate the chromogenic reaction, 280 μl of control thrombin (without tested compounds) or thrombin after preincubation with a polyphenolic compound to every reaction well in the same moment was added. The absorbance value was monitored every 12 s for 10 min. The maximal velocity of the reaction (V max, Δm OD/min) for each absorbance curve was determined. IC50 value (parameter) for every polyphenolic compound from inhibition curves was estimated.

In assay [3] the target is T1, human thrombin. Nature of the assay: Analysis of thrombin inhibition parameters (Lineweaver–Burk curves). Type of assay: biochemical. On the set-up: Thrombin, also known as an active plasma coagulation factor II; purchased Sigma-Aldrich Chemical Co. (St. Louis, MO, USA) T7009. The note with it: for k cat: compound at IC50 concentration, k cat = V max/E 0, control 29.1; for Type of inhibition: from Lineweaver–Burk curves; for V max of chromogenic substrate hydrolysis by thrombin / K m of chromogenic substrate hydrolysis by thrombin: thrombin incubated with compound at IC50 concentration; for V max of chromogenic substrate hydrolysis by thrombin: control 30.7; for K m of chromogenic substrate hydrolysis by thrombin: control 158.7. Here is the method:
Absorbance was monitored every 12 s for 10 min in a 96-well microplate reader. The velocity of reaction was expressed as the increase in product (pNA) over time (∆ μmol/min) using a computer program Mikcroplate Manager® 8 and the extinction coefficient of p-nitroaniline. […] Then, the Lineweaver–Burk ([1934]) curves for thrombin in the presence and in the absence of polyphenol compounds were plotted. The Lineweaver–Burk equation, which is a transformation of the Michaelis–Menten model, looks as follows: 1/V=Km/Vmax·1/[S]+1/Vmax

Assay [4] addresses T1, human thrombin. Nature of the assay: Thrombin-induced fibrinogen polymerization. Type of assay: biochemical. On the set-up: Thrombin, also known as an active plasma coagulation factor II; purchased Sigma-Aldrich Chemical Co. (St. Louis, MO, USA) T7009. As to conditions: thrombin preincubated with compound; for Effect on thrombin ability to induce fibrinogen polymerization: 10 min 37 °C; for Concentration causing total inhibition of thrombin activity (fibrin polymerization): Vmax of fibrinogen polymerization at 595 nm. Here is the method:
In these preparations, to nine volumes of thrombin one volume of polyphenolic compounds was added (final thrombin concentration was 15.8 nM). All tested compounds were dissolved in 50 % DMSO to the initial concentration of 10 mM; other solutions of compounds were also prepared in 50 % DMSO (prepared in 50 mM TBS, pH 7.4). […] Polymerization of fibrin was monitored at 595 nm using a 96-well microtiter plate reader. To each reaction well of the microtiter plate, 100 μl of fibrinogen (3 mg/ml) in 50 mM TBS and 5 mM CaCl2, pH 7.4, were added. […] The maximal velocity of the polymerization process (V max, Δm OD/min) for each absorbance curve was determined (Nowak et al., [2007]).

The subject of assay [5] is human thrombin. The assay is described as follows: Thrombin-induced platelet aggregation (turbidimetric). Type of assay: cell-based. As to conditions: for Effect on thrombin ability to stimulate platelet aggregation: compound preincubated with thrombin. Here is the method:
Blood samples in 0.32 % sodium citrate from healthy volunteers without cardiovascular disorders were collected, untreated with antiplatelet drugs. […] Platelets were isolated from PRP using BSA–Sepharose 2B gel filtration method according to Walkowiak et al. ([2000]). […] In these preparations, to nine volumes of thrombin one volume of polyphenolic compounds was added (final thrombin concentration was 15.8 nM). All tested compounds were dissolved in 50 % DMSO to the initial concentration of 10 mM; other solutions of compounds were also prepared in 50 % DMSO (prepared in 50 mM TBS, pH 7.4). […] The platelet aggregation was measured by turbidimetric method (Saluk-Juszczak et al., [2007]) using dual-channel Chrono-log optical aggregometer (Chronolog, USA). […] Platelet suspensions were pre-warmed at 37 °C with stirring.

Assay [6] concerns the target T1, human thrombin. The assay is described as follows: SDS-PAGE analysis of thrombin-induced cross-linked fibrin formation. As to conditions: for Changes in electrophoresis of fibrinogen treated with preincubated thrombin: cyanin 75 and 750 μM, (+)-catechin 125 and 1,000 μM, (−)-epicatechin 150 and 1,000 μM. Type of assay: biochemical. The arrangement: Thrombin, also known as an active plasma coagulation factor II; purchased Sigma-Aldrich Chemical Co. (St. Louis, MO, USA) T7009; host or cells: purified from human plasma. As to the method:
In these preparations, to nine volumes of thrombin one volume of polyphenolic compounds was added (final thrombin concentration was 15.8 nM). All tested compounds were dissolved in 50 % DMSO to the initial concentration of 10 mM; other solutions of compounds were also prepared in 50 % DMSO (prepared in 50 mM TBS, pH 7.4). The final concentration of DMSO in thrombin samples was 5 %. To prepare thrombin control samples, the same volume of solvent (50 % DMSO prepared in 50 mM TBS, pH 7.4) was added as in the case of the compound volume and warmed for 10 min to 37 °C.
The reactions incubated at 37 °C were stopped after 5, 15 and 30 min by adding 150 μl of lysis buffer (0.125 M Tris/HCl, 4 % SDS, 8 M urea, 10 % β-mercaptoethanol, pH 6.8). Samples were subjected to SDS-PAGE (polyacrylamide concentration—7.5 %) using Mini-Protean Electrophoresis Cell (Bio-Rad, Hercules, CA). Proteins were stained with Coomassie Brilliant Blue R250 (CBB).

Where [7] appears, read: ten times IC50: cyanidin […], quercetin 15 μM, silybin 250 μM.

Read-outs that look alike come from different tables or passages of the source.

By IC50 is commonly meant the point on the concentration scale where inhibition reaches its midpoint. Take `Oc1cc(O)c2c(c1)O[C@H](c1ccc(O)c(O)c1)[C@@H](O)C2` [(+)-Catechin, (+)-catechin]: on human thrombin [1] (5 sensorgrams, 50 to 1,000 μM), the “K A, equilibrium association constant” value worked out at 20300 M⁻¹; the Kd was determined as 49.2 µM; the kon is 3.62 M⁻¹ s⁻¹; the koff turned out to be 0.000178 s⁻¹. Besides, at human thrombin [1], the “Response (RU)” value came out at 717 RU. The IC50 on human thrombin [2] worked out at 125 µM. Further, on human thrombin [3], the k cat stood at 29.5 s⁻¹, the Type of inhibition result is “competitive inhibitors”, the “V max of chromogenic substrate hydrolysis by thrombin” value (“V max” below) was 31.2 10^−6 mol/min and the “K m of chromogenic substrate hydrolysis by thrombin” value is 700.1 10^−6 M. The “Effect on thrombin ability to induce fibrinogen polymerization” value at human thrombin [4] is recorded as “inhibitory effect of polymerization of human fibrinogen was not observed”. Also, in the assay with human thrombin [5], the “Effect on thrombin ability to stimulate platelet aggregation” value was “no effect on thrombin ability to stimulate platelets aggregation”. In addition, at human thrombin [6], the “Changes in electrophoresis of fibrinogen treated with preincubated thrombin” value is given as “no changes were observed”.

For `Oc1cc(O)c2cc(O)c(-c3ccc(O)c(O)c3)[o+]c2c1` [Cyanidin, cyanidin], the “Response (RU)” value on human thrombin [1] is recorded as 2,251 RU. Besides, on human thrombin [3], the k cat came out at 28.7 s⁻¹, the Type of inhibition result was “competitive inhibitors”, the “V max” value is reported as 30.3 10^−6 mol/min and the “K m of chromogenic substrate hydrolysis by thrombin” value is 600.6 10^−6 M. Besides, at human thrombin [4], the “Effect on thrombin ability to induce fibrinogen polymerization” value was “inhibition of thrombin ability to induce fibrinogen polymerization” and the “Concentration causing total inhibition of thrombin activity (fibrin polymerization)” value was determined as 5 µM. Further, the “Platelet aggregation, % of control” value in the assay on human thrombin [5] (compound 5 μM preincubated with thrombin) is 10%. In addition, the “Effect on formation of γ–γ chains and α-polymers” value (“Effect on formation” below) on human thrombin [6] (at IC50 concentration of amidolytic inhibition: cyanidin […], quercetin 1.5 μM) is “also inhibited the formation of γ–γ chains and α-polymers”. Moreover, at human thrombin [6] (setting [7]), the “Effect on formation” value is “significantly inhibited the formation of γ–γ chains and α-polymers”.

For `COc1cc(C2Oc3cc([C@H]4Oc5cc(O)cc(O)c5C(=O)[C@@H]4O)ccc3OC2CO)ccc1O` (stereo in doubt) [Silybin, silybin], at human thrombin [1] (5 sensorgrams, 50 to 1,000 μM), the “K A, equilibrium association constant” value was found to be 53900 M⁻¹; the Kd is 18.6 µM; the kon worked out at 7.11 M⁻¹ s⁻¹; the koff came out at 0.000132 s⁻¹. In addition, the “Response (RU)” value at human thrombin [1] is given as 1,424 RU. Moreover, at human thrombin [2], the IC50 was 25 µM. Besides, at human thrombin [3], the k cat turned out to be 25.6 s⁻¹, the Type of inhibition entry is given as “competitive inhibitors”, the “V max” value is reported as 27 10^−6 mol/min and the “K m of chromogenic substrate hydrolysis by thrombin” value is 550.5 10^−6 M. Further, at human thrombin [4], the “Effect on thrombin ability to induce fibrinogen polymerization” value is given as “inhibition of thrombin ability to induce fibrinogen polymerization” and the “Concentration causing total inhibition of thrombin activity (fibrin polymerization)” value is listed as > 1,000 μM. Further, the “Platelet aggregation, % of control” value in the assay with human thrombin [5] (compound 1,000 μM preincubated with thrombin) is given as 43%. For the same molecule, the “Effect on formation” value on human thrombin [6] (setting [7]) is “slightly reduced the formation of γ–γ chains and α-polymers”.

For `OC[C@H]1O[C@@H](Oc2cc3c(O[C@@H]4O[C@H](CO)[C@@H](O)[C@H](O)[C@H]4O)cc(O)cc3[o+]c2-c2ccc(O)c(O)c2)[C@H](O)[C@@H](O)[C@@H]1O` [Cyanin, cyanin], at human thrombin [1], the “K A, equilibrium association constant” value stood at 115 M^–1 and the “Response (RU)” value is 827 RU. Besides, on human thrombin [1] (5 sensorgrams, 50 to 1,000 μM), the “K A, equilibrium association constant” value worked out at 115 M⁻¹; the Kd was determined as 8630 µM; the kon came to 0.95 M⁻¹ s⁻¹; the koff stood at 0.00824 s⁻¹. The IC50 at human thrombin [2] is 75 µM. On human thrombin [3], the k cat was 19.7 s⁻¹, the Type of inhibition entry is listed as “mixed type of inhibition”, the “V max” value was 20.8 10^−6 mol/min and the “K m of chromogenic substrate hydrolysis by thrombin” value was 344.6 10^−6 M. Also, the “Effect on thrombin ability to induce fibrinogen polymerization” value at human thrombin [4] was “inhibitory effect of polymerization of human fibrinogen was not observed”. For the same molecule, the “Effect on thrombin ability to stimulate platelet aggregation” value in the assay on human thrombin [5] is reported as “no effect on thrombin ability to stimulate platelets aggregation”. The “Changes in electrophoresis of fibrinogen treated with preincubated thrombin” value at human thrombin [6] is “no changes were observed”.

These data come from paper PMC3939009, “Thrombin inhibitory activity of some polyphenolic compounds” (Medicinal Chemistry Research, 2013).
